The values that follow come from PubChem BioAssay (NCI).

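Tested at 5 concentrations; 48 h exposure; 96-well plates; endpoints linearly interpolated, else capped at highest concentration. At the GI50, growth is halved. At the TGI there is no net growth.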

Assay in all cases: NCI tumour cell line growth inhibition, 48 h
In assay [1] the test system is EKVX NSCLC.
In assay [2] the test system is MALME-3M melanoma.
The subject of assay [3] is NCI-H460 lung.
The subject of assay [4] is RPMI-8226 leukemia.
The test system of assay [5] is SF-295 CNS.
The test system of assay [6] is SK-MEL-5 melanoma.
Assay [7] concerns SN12C renal.
The subject of assay [8] is SNB-19 CNS.
Assay [9] concerns SR leukemia.
Assay [10] deals with UO-31 renal.

For the molecule `O=C(O)CNc1c2ccccc2nc2ccccc12`, the TGI in assay [1], in [2], in [3], in assay [4], in [5] and in assay [6] was over 100 µM in each case. The TGI in [7], in assay [8], in [9] and in [10] was over 100 µM throughout.
For `OCc1cn(Cc2cccc(Cl)c2)c2ccccc12`, the GI50 was 17.3 µM in assay [1]; 12.3 µM in assay [2]; 0.0346 µM in [3]; 0.632 µM in [4]; 0.145 µM in assay [5]; 11 µM in [6]. Besides, the GI50 in [7] is 12 µM; in assay [8] it was 22.5 µM; in [9] it was 12.3 µM; in assay [10], 5.01 µM. The TGI in assay [1] amounted to 56.1 µM; in assay [2], 30.6 µM; in assay [3], 17.9 µM; in [4] it was 20 µM; in assay [5], 14.5 µM; in [6] it was 23.7 µM. In addition, the TGI was 42.6 µM in assay [7], over 96.5 µM in assay [8], 44.1 µM in assay [9] and 41.4 µM in assay [10].
Consider `c1ccc(Cc2nc3ccc(Nc4ncnc5ccccc45)cc3[nH]2)cc1`, for which the GI50 in [1] is 9.4 µM; in assay [2] it was over 25 µM; in assay [3], over 25 µM; in assay [4] it was 16.8 µM; in [5] it was over 25 µM; in assay [6] it was over 25 µM. Also, the GI50 in assay [7] was 11.1 µM; in [8], over 25 µM; in [9], over 25 µM; in [10], 8.98 µM. The TGI in [1], in [2], in assay [3], in [4], in [5] and in assay [6] was over 25 µM throughout. The TGI in [7], in assay [8], in [9] and in assay [10] was over 25 µM throughout.
With `COP(=O)(OC)C(NC(c1ccccc1)c1ccccc1)c1ccc2c(c1)OCO2` (stereo not given), the GI50 is 31.4 µM in [1]; 27.4 µM in assay [2]; 20.1 µM in assay [3]; 14.1 µM in [4]; 29.5 µM in assay [5]; 16.9 µM in assay [6]. The GI50 is 24 µM in assay [7], 23.4 µM in assay [8], 24.4 µM in assay [9] and 21.8 µM in [10]. The TGI in assay [1] was 92.6 µM; in [2], 58.9 µM; in [3], 42 µM; in assay [4], 32.3 µM; in assay [5], over 100 µM; in [6], 30.5 µM. The TGI in [7] worked out at 53.8 µM; in [8] it was 47.4 µM; in assay [9], 48.9 µM; in assay [10], 53.9 µM.
In the case of `COC(=O)C(CCS(=O)(=O)CC(=O)C(=O)Nc1cccc(C(C)=O)c1)C(=O)OC`, the TGI in assay [1] is over 100 µM; in [2] it was over 100 µM; in assay [3], over 92 µM; in assay [4] it was over 69.4 µM; in assay [5], over 100 µM; in [6], over 100 µM. In addition, the TGI in [7] was over 100 µM; in assay [8] it was over 100 µM; in assay [9] it was 50 µM; in assay [10], over 100 µM.
In the case of `Cc1c(C#N)cccc1-c1cc(-c2cn(Cc3cccc(C(C)(C)O)n3)nn2)nc(N)n1`, the GI50 in [1] was 27.8 µM; in [2], 31.3 µM; in assay [3], 44.9 µM; in assay [4], 7.57 µM; in assay [5], 25.2 µM; in [6], 15 µM. In addition, the GI50 in assay [7] is 17.2 µM; in assay [8], 47.4 µM; in [9], 13.3 µM; in assay [10], 10.7 µM. The TGI was over 100 µM in [1]; over 100 µM in [2]; over 100 µM in [3]; 34.9 µM in [4]; over 100 µM in assay [5]; 35.1 µM in assay [6]. The TGI in [7], in assay [8], in assay [9] and in assay [10] was over 100 µM throughout.
For `CCOC(=O)CC(=O)Sc1ccccc1`, the TGI in [1] is 74 µM; in [2], over 100 µM; in [3], 73.8 µM; in [4], 51 µM; in assay [5], 86.5 µM; in [6], 58.5 µM. Besides, the TGI in assay [7] is 24.6 µM; in assay [8], over 100 µM; in [9], 58.1 µM; in assay [10], 28.4 µM.
Regarding `CCCC[C@H]1C(=O)O[C@H](C)[C@H](NC(=O)c2cccc(NC=O)c2O)C(=O)O[C@@H](C)[C@@H]1OC(=O)CC(C)C`, the TGI in [1] was 37.9 µM; in [2] it was 50.9 µM; in [3] it was 27.4 µM; in assay [4] it was 24.4 µM; in assay [5], 21 µM; in assay [6], 16.8 µM. Also, the TGI worked out at 40.7 µM in [7], 63.1 µM in [8], 38.3 µM in assay [9] and 33.2 µM in assay [10].
Consider `[N-]=[N+]=NC(c1cn(C2CC(O)C(CO)O2)c(=O)[nH]c1=O)C(Br)I` (stereo not given), for which the TGI in assay [1], in [2], in assay [3], in assay [4], in assay [5] and in [6] was over 100 µM in each case. Also, the TGI in assay [7], in assay [8], in assay [9] and in assay [10] was over 100 µM in each case.
